Earlier results in publication PMC8127065 (Journal of controlled release : official journal of the …, 2021).

water solubility: 1 to 2 µg/mL
Compound: C=CC[C@@H]1/C=C(\C)C[C@H](C)C[C@H](OC)[C@H]2O[C@@](O)(C(=O)C(=O)N3CCCC[C@H]3C(=O)O[C@H](/C(C)=C/[C@@H]3CC[C@@H](O)[C@H](OC)C3)[C@H](C)[C@@H](O)CC1=O)[C@H](C)C[C@@H]2OC [Tacrolimus]
